Measured values published in PubChem BioAssay AID330 (DTP/NCI, 2004).
Values joined by “and” are separate entries in the source; they are usually repeats but may differ in a detail not shown here. Equal values may be shown once. Inconclusive results and toxic doses are left out. How the source made its calls: active means survival T/C of 150% or more; inactive means T/C below 125% in these data.

System: P388 leukemia ip, CD2F1 mice, survival T/C
Experiment: NCI In Vivo Anticancer Drug Screen. Data for tumor model P388 Leukemia (intraperitoneal) in CD2F1 (CDF1) mice
Settings: endpoint: median survival time, higher = longer survival
Outline: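 Mice carrying the transplanted tumor received test compound or vehicle. Survival was recorded in each group, and the value is the treated-group measurement divided by that of the vehicle-treated control group.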

[1] = dose: 100.0 mg/kg/injection, schedule: Q01DX009 (ip), vehicle: saline with Tween-80
[2] = dose: 200.0 mg/kg/injection, schedule: Q01DX009 (ip), vehicle: saline with Tween-80
[3] = dose: 50.0 mg/kg/injection, schedule: Q01DX009 (ip), vehicle: saline with Tween-80
[4] = dose: 400.0 mg/kg/injection, schedule: Q01DX009 (ip), vehicle: saline with Tween-80
[5] = dose: 100.0 mg/kg/injection, schedule: Q04DX002 (ip), vehicle: Klucel (hydroxypropylcellulose) (HPC)
[6] = dose: 200.0 mg/kg/injection, schedule: Q04DX002 (ip), vehicle: Klucel (hydroxypropylcellulose) (HPC)
[7] = dose: 400.0 mg/kg/injection, schedule: Q04DX002 (ip), vehicle: Klucel (hydroxypropylcellulose) (HPC)
[8] = dose: 100.0 mg/kg/injection, schedule: Q04DX003 (ip), vehicle: Klucel (hydroxypropylcellulose) (HPC)
[9] = dose: 200.0 mg/kg/injection, schedule: Q04DX003 (ip), vehicle: Klucel (hydroxypropylcellulose) (HPC)
[10] = dose: 400.0 mg/kg/injection, schedule: Q04DX003 (ip), vehicle: Klucel (hydroxypropylcellulose) (HPC)
[11] = dose: 50.0 mg/kg/injection, schedule: Q01DX005 (ip), vehicle: Klucel (hydroxypropylcellulose) (HPC)
[12] = dose: 100.0 mg/kg/injection, schedule: Q01DX005 (ip), vehicle: Klucel (hydroxypropylcellulose) (HPC)
[13] = dose: 200.0 mg/kg/injection, schedule: Q01DX005 (ip), vehicle: Klucel (hydroxypropylcellulose) (HPC)
[14] = dose: 30.0 mg/kg/injection, schedule: Q01DX005 (ip), vehicle: Klucel (hydroxypropylcellulose) (HPC)
[15] = dose: 100.0 mg/kg/injection, schedule: Q04DX003 (ip), vehicle: saline with Tween-80
[16] = dose: 200.0 mg/kg/injection, schedule: Q04DX003 (ip), vehicle: saline with Tween-80
[17] = dose: 400.0 mg/kg/injection, schedule: Q04DX003 (ip), vehicle: saline with Tween-80
[18] = dose: 60.0 mg/kg/injection, schedule: Q01DX005 (ip), vehicle: saline with Tween-80
[19] = dose: 120.0 mg/kg/injection, schedule: Q01DX005 (ip), vehicle: saline with Tween-80
[20] = dose: 240.0 mg/kg/injection, schedule: Q01DX005 (ip), vehicle: saline with Tween-80
[21] = dose: 25.0 mg/kg/injection, schedule: Q01DX009 (ip), vehicle: other
[22] = dose: 50.0 mg/kg/injection, schedule: Q01DX009 (ip), vehicle: other
[23] = dose: 100.0 mg/kg/injection, schedule: Q01DX009 (ip), vehicle: other
[24] = dose: 200.0 mg/kg/injection, schedule: Q01DX009 (ip), vehicle: other
[25] = dose: 50.0 mg/kg/injection, schedule: Q01DX005 (ip), vehicle: saline with Tween-80
[26] = dose: 100.0 mg/kg/injection, schedule: Q01DX005 (ip), vehicle: saline with Tween-80
[27] = dose: 200.0 mg/kg/injection, schedule: Q01DX005 (ip), vehicle: saline with Tween-80
[28] = dose: 100.0 mg/kg/injection, schedule: Q04DX002 (ip), vehicle: saline with Tween-80
[29] = dose: 200.0 mg/kg/injection, schedule: Q04DX002 (ip), vehicle: saline with Tween-80
[30] = dose: 400.0 mg/kg/injection, schedule: Q04DX002 (ip), vehicle: saline with Tween-80

Measured: T/C

COC(=O)C1=C(C(=O)OC)C2C=CC1C1C(Cl)C(Cl)C21 (stereo not drawn)
inactive: dose: 7.5 mg/kg/injection, schedule: Q01DX009 (ip), vehicle: saline with Tween-80 103 % of control | dose: 15.0 mg/kg/injection, schedule: Q01DX009 (ip), vehicle: saline with Tween-80 112 % of control | dose: 30.0 mg/kg/injection, schedule: Q01DX009 (ip), vehicle: saline with Tween-80 115 % of control | [1] 95 % of control | [2] 90 % of control

CCOC(=O)CCC(NC(=O)c1ccc(N(C)CCC(C)=O)cc1)C(=O)OCC (stereo not drawn)
inactive: [3] 111 % of control | [1] 111 % of control | [2] 102 % of control | [4] 97 % of control

NCc1c(O)ccc2ccccc12
inactive: [3] 105 % of control | [1] 107 % of control | [2] 108 % of control

O=c1c2c(nc3n1CCSCC3)NCCC2
inactive: [5] 104 % of control | [6] 98 % of control | [7] 100 % of control

O=[N+]([O-])c1ccccc1N=Nc1c(-c2ccccc2)nn(C(=S)S)c1-c1ccccc1
inactive: dose: 25.0 mg/kg/injection, schedule: Q04DX002 (ip), vehicle: Klucel (hydroxypropylcellulose) (HPC) 99 % of control | dose: 50.0 mg/kg/injection, schedule: Q04DX002 (ip), vehicle: Klucel (hydroxypropylcellulose) (HPC) 101 % of control | [5] 105 % of control | [6] 112 % of control

CCOC(=O)NC1CCc2ccccc2C1 (stereo not drawn)
inactive: [8] 98 % of control | [9] 108 % of control | [10] 95 % of control

N=c1oc2ccccc2cc1C(=O)NNC(=O)c1ccncc1
inactive: dose: 100.0 mg/kg/injection, schedule: Q01DX001 (ip), vehicle: saline 96 % of control | dose: 200.0 mg/kg/injection, schedule: Q01DX001 (ip), vehicle: saline 96 % of control | dose: 400.0 mg/kg/injection, schedule: Q01DX001 (ip), vehicle: saline 102 % of control

COc1cccc([B-]23OCC[N+]2(CNC(=O)C2=C(O)C4(O)C(=O)C5=C(O)c6c(O)cccc6C(C)(O)C5CC4C(N(C)C)C2=O)CCO3)c1 (stereo not drawn)
inactive: [11] 110 % of control | [12] 105 % of control | [13] 115 % of control

N#CC(=O)Nc1ccc(Cl)c(Cl)c1
inactive: dose: 7.5 mg/kg/injection, schedule: Q01DX005 (ip), vehicle: Klucel (hydroxypropylcellulose) (HPC) 104 % of control | dose: 15.0 mg/kg/injection, schedule: Q01DX005 (ip), vehicle: Klucel (hydroxypropylcellulose) (HPC) 99 % of control | [14] 100 % of control

Cc1ccc(-n2nc(C)c3c(N)nc(N)nc32)c(Cl)c1
inactive: [8] 101 % of control | [9] 101 % of control | [10] 103 % of control

CCOC(=O)c1nc2cc(C)c(C)cc2[nH]c1=O
inactive: [15] 95 % of control | [16] 100 % of control | [17] 104 % of control

CC(=O)c1cccc2cccc([N+](=O)[O-])c12
inactive: [1] 104 % of control | [2] 90 % of control | [4] 104 % of control

CC1OC(Oc2c(-c3ccc(O)c(O)c3O)oc3cc(O)ccc3c2=O)C(O)C(O)C1O (stereo not drawn)
inactive: [18] 102 % of control | [19] 98 % of control | [20] 99 % of control

CSCc1csc(N)n1
inactive: dose: 12.5 mg/kg/injection, schedule: Q01DX009 (ip), vehicle: other 102 % of control | [21] 96 % of control | [22] 111 % of control | [23] 111 % of control | [24] 100 % of control

CCCC(NC(=O)C(C)NC(=O)OCc1ccccc1)C(=O)O (stereo not drawn)
inactive: [11] 98 % of control | [12] 96 % of control | [13] 96 % of control

Cc1ccc(CNc2cccnc2)cc1
inactive: [15] 104 % of control | [16] 95 % of control | [17] 90 % of control

COc1cc2c(cc1OC)CN1CCc3cc(OC)c(OC)cc3C1C2 (stereo not drawn)
inactive: [25] 99 % of control | [26] 94 % of control | [27] 91 % of control

Cc1onc(-c2c(F)cccc2Cl)c1C(=O)Oc1ccccc1
inactive: dose: 30.0 mg/kg/injection, schedule: Q01DX005 (ip), vehicle: saline with Tween-80 100 % of control | [18] 100 % of control | [19] 103 % of control | [20] 99 % of control

Ic1ncnc2c1ncn2C1CCCCO1 (stereo not drawn)
inactive: [1] 95 % of control | dose: 100.0 mg/kg/injection, schedule: Q01DX009 (ip), vehicle: saline 95 % of control | [15] 100 % of control | [2] 100 % of control | dose: 200.0 mg/kg/injection, schedule: Q01DX009 (ip), vehicle: saline 104 % of control | [16] 91 % of control | [4] 90 % of control | [17] 95 % of control

CC(=O)CC(=O)Nc1ccc(Oc2ccccc2)cc1
inactive: [5] 100 % of control | [6] 97 % of control | [7] 96 % of control

COc1cc2c(c(OC)c1OC)-c1ccc(SC)c(=O)cc1[C@@H](NC(=O)C(F)(F)F)CC2
inactive: dose: 0.08 mg/kg/injection, schedule: Q01DX009 (ip), vehicle: Klucel (hydroxypropylcellulose) (HPC) 110 % of control and 117 % of control | dose: 0.16 mg/kg/injection, schedule: Q01DX009 (ip), vehicle: Klucel (hydroxypropylcellulose) (HPC) 120 % of control and 124 % of control

OC1CSCc2ccccc21 (stereo not drawn)
inactive: [21] 109 % of control | [22] 102 % of control | [23] 109 % of control | [24] 108 % of control

CC(=O)N1c2ccccc2Oc2ccc3ccccc3c21
inactive: [25] 104 % of control | [26] 100 % of control | [27] 97 % of control

O=C(Nc1ccccc1C(=O)NCC1CC1)c1cccs1
inactive: [18] 106 % of control | [19] 100 % of control | [20] 99 % of control

COc1ccc(CS(=O)CC(N)C(=O)O)cc1 (stereo not drawn)
inactive: [28] 98 % of control | [29] 104 % of control | [30] 86 % of control

O=C1CSC(c2ccccn2)N1CCN1C(=O)CSC1c1ccccn1 (stereo not drawn)
inactive: [11] 94 % of control | [12] 96 % of control | [28] 97 % of control | [13] 97 % of control | [29] 102 % of control | [30] 93 % of control

O=C1C2=C(Nc3cc([N+](=O)[O-])ccc3N2)OC1c1ccccn1 (stereo not drawn)
inactive: [14] 119 % of control | dose: 60.0 mg/kg/injection, schedule: Q01DX005 (ip), vehicle: Klucel (hydroxypropylcellulose) (HPC) 122 % of control | dose: 120.0 mg/kg/injection, schedule: Q01DX005 (ip), vehicle: Klucel (hydroxypropylcellulose) (HPC) 121 % of control

CC(C)CC(NC(=O)OCC1c2ccccc2-c2ccccc21)C(=O)O (stereo not drawn)
inactive: [11] 101 % of control | [12] 100 % of control
